Reference: PMC3023147 (Protein & cell, 2010)

Biological target: T1, mTAT (mouse tyrosine aminotransferase) (Mus musculus, UniProt Q8QZR1)
T1 sequence (Q8QZR1 41-442): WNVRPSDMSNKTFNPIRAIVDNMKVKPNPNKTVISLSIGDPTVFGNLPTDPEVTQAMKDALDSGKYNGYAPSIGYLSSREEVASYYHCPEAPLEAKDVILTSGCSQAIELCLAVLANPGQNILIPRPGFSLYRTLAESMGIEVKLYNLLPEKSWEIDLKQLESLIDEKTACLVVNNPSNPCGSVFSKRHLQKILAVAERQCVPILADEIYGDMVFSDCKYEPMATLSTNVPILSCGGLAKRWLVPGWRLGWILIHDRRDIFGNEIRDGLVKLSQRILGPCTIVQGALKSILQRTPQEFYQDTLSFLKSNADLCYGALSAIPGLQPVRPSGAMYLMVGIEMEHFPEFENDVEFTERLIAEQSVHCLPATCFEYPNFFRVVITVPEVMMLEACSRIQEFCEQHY
Experiment: X-ray crystal structure, […] Å
Type: binding
Details: covalent; internal Schiff base with Lys280; pH 6.8

For Cc1ncc(COP(=O)(O)O)c(C=O)c1O [PLP], the “X-ray crystal structure, 2.9 Å” value was “Residual electron density clearly revealed the presence of covalently bound PLP in the active center”.
